Results: patent publication EP1234575A1, “Furan fatty acids for improving the efficiency of cytostatic and/or radiation therapy” (Deigner, Hans-Peter, Dr., priority 2001, dated 2002)

What was measured:
[1] = tested on: Nierenkarzinomzelllinie (RENCA); experiment: Apoptosis in RENCA renal carcinoma cells: FFS alone or 2 h FFS pre-incubation followed by a cytostatic (YO-PRO-1 positive cells, DNA laddering); type: cell-based; details: for Zahl apoptotischer Zellen bei 50 nM relativ zu 100 nM: 50 nM FFS versus 100 nM FFS, plus Daunorubicin; for Zahl apoptotischer Zellen bei 50 nM relativ zu 100 nM / höhere Anzahl apoptotischer Zellen im Vergleich zur Kontrolle mit Daunorubicin alleine / Konzentrationsabhängigkeit des prozentualen Anteils apoptotischer Zellen: Renca-Zellen; for höhere Anzahl apoptotischer Zellen im Vergleich zur Kontrolle mit Daunorubicin alleine: 1000 nM FFS plus Daunorubicin (1 µM per Figur 3); for Konzentrationsabhängigkeit des prozentualen Anteils apoptotischer Zellen: FFS 0 to 1000 nM plus Daunorubicin
Source text: (§1) Untersuchungen der pro- bzw. antiapoptotischen Wirkung der FFS wurden an einer Nierenkarzinomzelllinie (RENCA; Murphy et al., J. Natl. Cancer Inst. 50: 1013, 1973) durchgeführt. Dazu wurden die Zellen 22 Stunden zum einen mit einem Zytostatikum, zum anderen mit der entsprechenden FFS sowie einer Kontrolle und einer Kombination aus FFS und Zytostatikum inkubiert. Für die Substanzkombination aus FFS und Zytostatikum wurden die Zellen zwei Stunden mit der jeweiligen FFS vorinkubiert, anschließend das Zytostatikum zugegeben und danach für 24 Stunden im Brutschrank inkubiert. Die verwendeten Konzentrationen sind in Figur 3 angegeben. Diese Untersuchungen wurden mit den Verbindungen 11a/11b, 12b, 6b, 13b und 14 sowie jeweils für jedes Zytostatikum getrennt durchgeführt. Es zeigte sich bei keiner der getesteten FFS (alleinige Zugabe) eine signifikante Zunahme der Zahl apoptotischer Zellen gegenüber der Kontrolle. Bei Inkubation der Zellen mit einer FFS und anschließender Zytostatikumgabe konnten unterschiedliche Effekte beobachtet werden .
Bei den alkin-substituierten FFS wurde bei Verwendung von Daunorubicin in Kombination mit 11a eine Zunahme von 60% und in Kombination mit 11b eine Abnahme der Anzahl apoptotischer Zellen gemessen. Bei Verwendung von Vinblastin als Zytostatikum nahm bei beiden FFS 11a und 11b die Zahl apoptotischer Zellen von 60% bzw. 160% zu.
(§2) Da die FFS 11a und 11b als einzige aller synthetisierten FFS eine signifikante Zunahme an apoptotischen Zellen bei Inkubation in Kombination mit einem Zytostatikum zeigten, wurde untersucht, ob dieser Effekt von der Konzentration der FFS abhängt. Daher wurde das oben beschriebene Experiment an Renca-Zellen unter den gleichen Bedingungen, aber mit jeweils verschiedenen Konzentrationen von 11a bzw. 11b im Bereich von 0 bis 1000 nM durchgeführt (Figur 3). […] Der prozentuale Anteil apoptotischer Zellen nahm mit steigender FFS Konzentration zu und mit fallender ab. Bei Inkubation mit einer 1000 nM-Lösung wurde eine 6.1 bzw. 5.2-fach höhere Anzahl apoptotischer Zellen im Vergleich zur Kontrolle mit Daunorubicin alleine festgestellt. […] Bei Inkubation der Zellen mit FFS ohne Zytostatikum wurden auch bei hoher FFS Konzentration keine signifikante Zu- bzw. Abnahme der Apoptoserate festgestellt. Die Apoptoserate wurde routinemäßig durch Messung YO-PRO-1 positiver Zellen^5,6 DNA-Leiter-Untersuchungen ("DNA-laddering") ermittelt.

[2] = tested on: Morris-Hepatom; experiment: Apoptosis in Morris hepatoma cells: FFS alone or FFS pre-incubation followed by a cytostatic; type: cell-based, Ratte
Source text: as §1
Aufgrund dieser Effekte wurde mit den alkin-substituierten FFS 11a und 11b an einer weiteren Karzinomzelllinie (Morris-Hepatom; Tumorbank DKFZ Heidelberg, TZB No. 620143, MH TC 5123, histologischer Typ: Hepatom, Herkunft/Spezies: Ratte, Buffalo) die oben beschriebenen Untersuchungen durchgeführt. Die Konzentrationen der verwendeten FFS bzw. Zytostatika sind in Figur 4 angegeben. FFS alleine zeigten auch hier keine Effekte. Bei einer Kombination aus Daunorubicin mit der FFS 11a bzw. 11b stieg die Zahl apoptotischer Zellen um 130% bzw. 60% und bei einer Kombination FFS 11a bzw. 11b mit Vinblastin um 85% bzw. 50% .
as §2

[3] = 2 h FFS pre-incubation, then Daunorubicin, 24 h, RENCA
[4] = 2 h FFS pre-incubation, then Vinblastin, 24 h, RENCA

Structure (SMILES) | Anzahl apoptotischer Zellen (change, in words) [1, 3] | Anzahl apoptotischer Zellen (change, in words) [1, 4] | Zahl apoptotischer Zellen bei 50 nM relativ zu 100 nM [1] | höhere Anzahl apoptotischer Zellen im Vergleich zur Kontrolle mit Daunorubicin alleine [1] | Zunahme der Zahl apoptotischer Zellen [1, 4] | Konzentrationsabhängigkeit des prozentualen Anteils apoptotischer Zellen [1] | Anstieg der Zahl apoptotischer Zellen ([2]; FFS combined with Daunorubicin) | Anstieg der Zahl apoptotischer Zellen ([2]; FFS combined with Vinblastin) | Zunahme der Anzahl apoptotischer Zellen [1, 3]
CCC(=O)/C=C/c1ccc(CCCCCCCCCCC(=O)OC)o1 [6b, 11-[5(3-Oxo-pentenyl)-furan-2-yl]-undecansäure-methylester] | leichter Rückgang | leichter Rückgang |  |  |  |  |  |  | 
CCC(=O)/C=C/c1ccc(C#CCCCCCCCCC(=O)OC)o1 [11b, 11-[5-(3-Oxo-1-pentenyl)-furan-2-yl]-10-undecinsäure-methylester] | Abnahme |  | ca. halb so groß | 5.2 fach | 160% | deutliche Konzentrationsabhängigkeit | 60% | 50% | 
COC(=O)CCCCCCCCC#Cc1ccc(/C=C/C(C)=O)o1 [11a, 11-[5-(3-Oxo-1-butenyl)-furan-2-yl]-10-undecinsäuremethylester] |  |  | ca. halb so groß | 6.1 fach | 60% | deutliche Konzentrationsabhängigkeit | 130% | 85% | 60%
CCC(=O)CCc1ccc(CCCCCCCCCCC(=O)OC)o1 [13b, 11-[5(3-Oxo-pentyl)-furan-2-yl]-undecansäure-methylester] | leichter Rückgang | leichter Rückgang |  |  |  |  |  |  | 
CCC(=O)/C=C/c1ccc(/C=C\CCCCCCCCC(=O)OC)o1 [12b] | leichter Rückgang | leichter Rückgang |  |  |  |  |  |  | 
